In patent EP0675900B1, “ANTIBIOTICS GE 37468 A, B AND C” (Biosearch Italia S.p.A., priority 1992, dated 1994):

Key:
[1] = test system: gram positive bacteria and gram positive as well as gram negative anaerobes; test: Minimal inhibitory concentrations (MIC) by broth microdilution, in vitro antimicrobial activity; assay type: cell-based; details: summary in words of the in vitro spectrum; the MIC values of Table IV are printed only as an image
[2] = test system: Staphylococcus aureus Smith; test: Experimental septicemia in mice; assay type: in vivo, CD1 mice; details: iv, 168 h, mice infected intraperitoneally with 10^6 CFU/mouse S. aureus Smith, compound given intravenously once immediately after infection, Spearman and Kaerber method from survival at day 7
Procedure: The antimicrobial activity of antibiotic GE37468A was also confirmed in experimental septicemia in mice.
Groups of five CD1 mice of both sexes (Charles River, average weight 18-22 g) were infected intraperitoneally with 10^6 CFU/mouse of Staphylococcus aureus Smith suspended in 0.5 ml of 5% bacteriological mucin (Difco). The test compound was administered intravenously once, immediately after infection, in a sterile solution containing 10% dimethylsulfoxide, 10% Cremophor EL®, 20% 0.07 M phosphate buffer (pH 8), 60% glucose solution (5%).

[3] = Hydrolytic degradation in acidic aqueous buffer; assay type: physicochemical; details: kept for 6 to 18 hours in an aqueous buffer solution having a pH value between 3 and 4
From the text: Antibiotics GE37468B and GE37468C seem to derive from antibiotic GE37468A via hydrolytic degradation. […] The physico-chemical characteristics of these two products are as follows: […]

For `C=C(NC(=O)C(=C)NC(=O)c1csc(-c2ccc3c(n2)-c2csc(n2)-c2csc(n2)C2C(C)CC(O)N2C(=O)C(Cc2ccc(O)cc2)NC(=O)C2CSC(=N2)C(Cc2ccccc2)NC(=O)c2csc(n2)C(CC(N)=O)NC(=O)c2nc-3oc2C)n1)C(=O)O` (centres unmarked) [GE37468A], the antimicrobial activity [1] was “mainly active against gram positive bacteria and gram positive as well as gram negative anaerobes”, the ED50 [2] was 3.2 mg/kg and the “stability in aqueous buffer solution (hydrolytic degradation)” value [3] was “yields substantial amounts of both antibiotic GE37468B and GE37468C”.

With `Cc1oc2nc1C(=O)NC(CC(N)=O)c1nc(cs1)C(=O)NC(Cc1ccccc1)C1=NC(CS1)C(=O)NC(Cc1ccc(O)cc1)C(=O)N1C(O)CC(C)C1c1nc(cs1)-c1nc(cs1)-c1nc(-c3nc(C(N)=O)cs3)ccc1-2` (centres unmarked) [GE37468B] the antimicrobial activity [1] was “mainly active against gram positive bacteria and gram positive as well as gram negative anaerobes”.

With `C=C(NC(=O)c1csc(-c2ccc3c(n2)-c2csc(n2)-c2csc(n2)C2C(C)CC(O)N2C(=O)C(Cc2ccc(O)cc2)NC(=O)C2CSC(=N2)C(Cc2ccccc2)NC(=O)c2csc(n2)C(CC(N)=O)NC(=O)c2nc-3oc2C)n1)C(N)=O` (centres unmarked) [GE37468C] the antimicrobial activity [1] was “mainly active against gram positive bacteria and gram positive as well as gram negative anaerobes”.
